Where a name gives a salt, the structure may show the parent alone.
The compounds below were run against T1, cPLA2 crudely purified from the cytoplasm fraction of U937 (Homo sapiens, UniProt P47712) (assay: Measurement of cPLA2 inhibitory activity (release of [14C]-arachidonic acid from phosphatidyl choline liposome)). Details: cPLA2 from U937 cytoplasm fraction, [14C]arachidonyl-phosphatidyl choline liposome, 37° C., 60 minutes; read-out: cPLA2 inhibitory activity, 50% inhibiting concentration IC50.
T1 construct: cPLA2 crudely purified from the cytoplasm fraction of U937; endogenous in cells; host or cells: U937 cells (cytoplasm fraction, crude purification)
T1 sequence (P47712 1-749): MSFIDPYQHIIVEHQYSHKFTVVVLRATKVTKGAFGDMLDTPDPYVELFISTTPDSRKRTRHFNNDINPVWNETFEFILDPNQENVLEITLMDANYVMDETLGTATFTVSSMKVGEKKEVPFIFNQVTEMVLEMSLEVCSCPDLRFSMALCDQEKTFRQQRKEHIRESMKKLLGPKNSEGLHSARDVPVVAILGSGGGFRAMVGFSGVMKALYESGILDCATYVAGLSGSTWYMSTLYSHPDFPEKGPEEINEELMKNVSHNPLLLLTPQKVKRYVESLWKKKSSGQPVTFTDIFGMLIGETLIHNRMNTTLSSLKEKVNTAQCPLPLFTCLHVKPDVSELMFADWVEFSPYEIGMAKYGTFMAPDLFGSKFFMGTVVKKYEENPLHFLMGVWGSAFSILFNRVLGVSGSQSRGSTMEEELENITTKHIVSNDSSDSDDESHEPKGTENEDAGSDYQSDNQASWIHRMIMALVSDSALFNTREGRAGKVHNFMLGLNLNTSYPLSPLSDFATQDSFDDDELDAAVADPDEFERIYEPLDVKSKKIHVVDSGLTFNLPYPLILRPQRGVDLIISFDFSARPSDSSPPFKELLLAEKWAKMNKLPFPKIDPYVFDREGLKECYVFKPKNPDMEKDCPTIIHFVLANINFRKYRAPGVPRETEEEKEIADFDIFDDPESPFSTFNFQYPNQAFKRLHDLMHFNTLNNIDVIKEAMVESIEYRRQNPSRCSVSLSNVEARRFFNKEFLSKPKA
Assay type: biochemical
Experimental: The cPLA2 inhibitory activity was measured based on the method described in the document [See H. Naraba et al., J. Immunol. 160, 2974-2982 (1998)] and modified in the following way.
A DMSO solution of the present invitation compounds was diluted to 2.5 times the final concentration with the assay buffer (4 mM CaCl2, 2 mM dithiothreitol, 150 mM NaCl, 50 mM HEPES buffer solution (pH7.5)) containing 0.55 mg/ml BSA. To 20 μl of this, cPLA2 crudely purified from the cytoplasm fraction of U937 was added in an amount of 10 μl after dilution by an assay buffer solution containing 0.55 mg/ml BSA. A liposome prepared by ultrasonically treating L-α-1-palmitoyl-2-[14C]arachidonyl-phosphatidyl choline (made by PerkinElmer) and adjusted by the assay buffer solution to a concentration of phosphatidyl choline of 10 μM was added and stirred in by an amount of 20 μl and the mixture was reacted at 37° C. for 60 minutes. The [^14C]-arachidonic acid released due to the reaction was extracted based on the method described in the documents [see V. P. Dole et al., J. Biol. Chem. 235, 2595 (1960)], was added to Lumaplate® (made by PerkinElmer), dried, then measured by Topcount® (made by PerkinElmer). Except for not adding the present invention compounds, the same procedure was performed as the above to obtain the enzyme control. Except for not adding the invention compounds and not adding the enzyme, the same procedure was followed as above to obtain a negative control. The inhibiting activity was expressed as a percent (%) of the value minus the negative control with respect to the value of the enzyme control minus the negative control. From this, the 50% inhibiting concentration (IC50, μM) was calculated.
Work on O=C(CCc1ccc2c(c1)c(CCc1ccccc1)cn2-c1ccccc1)C(F)(F)F [Example 113, 1,1,1-trifluoro-4-[1-phenyl-3-(2-phenylethyl)-1H-indol-5-yl]butan-2-one] yielded an IC50 of 1150 nM.
CCOc1ccc(-n2cc(CCc3ccccc3)c3cc(CCC(=O)N(C)OC)ccc32)cc1 [Example 116, 3-[1-(4-ethoxyphenyl)-3-(2-phenylethyl)-1H-indol-5-yl]-N-methoxy-N-methylpropanamide] was tested, and the IC50 was 2170 nM.
Compound CCOc1ccc(-n2cc(CCc3ccccc3)c3cc(CCC=O)ccc32)cc1 [Example 117] has an IC50 of 527 nM.
In the case of CCCOc1ccc(-n2cc(CCc3ccccc3)c3cc(CCC(=O)O)ccc32)cc1 [Example 119, 3-[3-(2-phenylethyl)-1-(4-propoxyphenyl)-1H-indol-5-yl]propanoic acid], the IC50 is reported as 7 nM.
CC(C)Oc1ccc(-n2cc(CCc3ccccc3)c3cc(CCC(=O)O)ccc32)cc1 [Example 121, 3-[1-(4-isopropoxyphenyl)-3-(2-phenylethyl)-1H-indol-5-yl]propanoic acid] showed an IC50 of 7 nM.
With COc1ccc(-n2cc(CCc3ccccc3)c3cc(CCC(=O)O)ccc32)cn1 [Example 130, 3-[1-(6-methoxy-3-pyridinyl)-3-(2-phenylethyl)-1H-indol-5-yl]propanoic acid] the IC50 was 113 nM.
In the case of O=C(O)CCc1ccc2c(c1)c(CCc1ccccc1)cn2-c1ccccn1 [Example 132, 3-[3-(2-phenylethyl)-1-(2-pyridinyl)-1H-indol-5-yl]propanoic acid hydrochloride], the IC50 is reported as 225 nM.
O=C(O)CCc1ccc2c(c1)c(CCc1ccccc1)cn2-c1ccc([N+](=O)[O-])cn1 [Example 134, 3-[1-(5-nitro-2-pyridinyl)-3-(2-phenylethyl)-1H-indol-5-yl]propanoic acid hydrochloride] gave an IC50 of 211 nM.
Nc1ccc(-n2cc(CCc3ccccc3)c3cc(CCC(=O)O)ccc32)nc1 [Example 135, 3-[1-(5-amino-2-pyridinyl)-3-(2-phenylethyl)-1H-indol-5-yl]propanoic acid] showed an IC50 of 277 nM.
Work on CC(=O)Nc1ccc(-n2cc(CCc3ccccc3)c3cc(CCC(=O)O)ccc32)nc1 [Example 140, 3-{1-[5-(acetylamino)-2-pyridinyl]-3-(2-phenylethyl)-1H-indol-5-yl}propanoic acid] yielded an IC50 of 117 nM.
In the case of O=C(O)/C=C/c1ccc2c(c1)c(CCc1ccccc1)cn2-c1ccc(OCc2ccccc2)cc1 [Example 144, (2E)-3-{1-[4-(benzyloxy)phenyl]-3-(2-phenylethyl)-1H-indol-5-yl}-2-propenoic acid], the IC50 is reported as 42 nM.
In the case of O=C(O)CCc1ccc2c(c1)c(CCc1ccccc1)cn2-c1ccccc1[N+](=O)[O-] [Example 149, 3-[1-(2-nitrophenyl)-3-(2-phenylethyl)-1H-indol-5-yl]propanoic acid], the IC50 is reported as 278 nM.
In the case of Nc1ccccc1-n1cc(CCc2ccccc2)c2cc(CCC(=O)O)ccc21 [Example 151, 3-[1-(2-aminophen 1)-3-(2-phenylethyl)-1H-indol-5-yl]propanoic acid], the IC50 is reported as 185 nM.
Compound CC(=O)Nc1ccccc1-n1cc(CCc2ccccc2)c2cc(CCC(=O)O)ccc21 [Example 153, 3-{1-[2-(acetylamino)phenyl]-3-(2-phenylethyl)-1H-indol-5-yl}propanoic acid] has an IC50 of 7960 nM.
Work on O=C(O)CCc1ccc2c(c1)c(CCc1ccccc1)cn2-c1cccc(OCc2ccccc2)c1 [Example 155, 3-{1-[3-(benzyloxy)phenyl]-3-(2-phenylethyl)-1H-indol-5-yl}propanoic acid 2-amino-2-(hydroxymethyl)propane-1,3-diol salt (1:1)] yielded an IC50 of 208 nM.
With CCOc1cccc(-n2cc(CCc3ccccc3)c3cc(CCC(=O)O)ccc32)c1 [Example 159, 3-[1-(3-ethoxyphenyl)-3-(2-phenylethyl)-1H-indol-5-yl]propanoic acid] the IC50 was 515 nM.
CCCOc1cccc(-n2cc(CCc3ccccc3)c3cc(CCC(=O)O)ccc32)c1 [Example 161, 3-[3-(2-phenylethyl)-1-(3-propoxyphenyl)-1H-indol-5-yl]propanoic acid] gave an IC50 of 813 nM.
CC(C)Oc1cccc(-n2cc(CCc3ccccc3)c3cc(CCC(=O)O)ccc32)c1 [Example 163, 3-[1-(3-isopropoxyphenyl)-3-(2-phenylethyl)-1H-indol-5-yl]propanoic acid] showed an IC50 of 1750 nM.
Compound O=C(O)CCc1ccc2c(c1)c(CCc1ccccc1)cn2-c1cccc([N+](=O)[O-])c1 [Example 165, 3-[1-(3-nitrophenyl)-3-(2-phenylethyl)-1H-indol-5-yl]propanoic acid] has an IC50 of 154 nM.
With Nc1cccc(-n2cc(CCc3ccccc3)c3cc(CCC(=O)O)ccc32)c1 [Example 167, 3-[1-(3-aminophenyl)-3-(2-phenylethyl)-1H-indol-5-yl]propanoic acid] the IC50 was 49 nM.
Compound CC(=O)Nc1cccc(-n2cc(CCc3ccccc3)c3cc(CCC(=O)O)ccc32)c1 [Example 169, 3-{1-[3-(acetylamino)phenyl]-3-(2-phenylethyl)-1H-indol-5-yl}propanoic acid] has an IC50 of 205 nM.
Work on CC(C)(C)C(=O)Nc1cccc(-n2cc(CCc3ccccc3)c3cc(CCC(=O)O)ccc32)c1 [Example 171, 3-[1-{3-[(2,2-dimethylpropanoyl)amino]phenyl}-3-(2-phenylethyl)-1H-indol-5-yl]propanoic acid] yielded an IC50 of 210 nM.
N#Cc1cccc(-n2cc(CCc3ccccc3)c3cc(CCC(=O)O)ccc32)c1 [Example 173, 3-[1-(3-cyanophenyl)-3-(2-phenylethyl)-1H-indol-5-yl]propanoic acid] gave an IC50 of 259 nM.
Work on O=Cc1cccc(-n2cc(CCc3ccccc3)c3cc(CCC(=O)O)ccc32)c1 [Example 175, 3-[1-(3-formylphenyl)-3-(2-phenylethyl)-1H-indol-5-yl]propanoic acid] yielded an IC50 of 143 nM.
With O=C(O)CCc1ccc2c(c1)c(CCc1ccccc1)cn2-c1cccc(C(=O)O)c1 [Example 177, 3-[5-(2-carboxyethyl)-3-(2-phenylethyl)-1H-indol-1-yl]benzoic acid] the IC50 was 2520 nM.
CN(C)c1cccc(-n2cc(CCc3ccccc3)c3cc(CCC(=O)O)ccc32)c1 [Example 179, 3-{1-[3-(dimethylamino)phenyl]-3-(2-phenylethyl)-1H-indol-5-yl}propanoic acid] showed an IC50 of 182 nM.
O=C(O)CCc1ccc2c(c1)c(CCc1ccccc1)cn2-c1cccc(Cl)c1 [Example 181, 3-[1-(3-chlorophenyl)-3-(2-phenylethyl)-1H-indol-5-yl]propanoic acid] gave an IC50 of 138 nM.
For O=C(O)CCc1ccc2c(c1)c(CCc1ccccc1)cn2-c1cccc(F)c1 [Example 183, 3-[1-(3-fluorophenyl)-3-(2-phenylethyl)-1H-indol-5-yl]propanoic acid], the IC50 was 70 nM.
Compound O=C(O)CCc1ccc2c(c1)c(CCc1ccccc1)cn2-c1cccc(OC(F)F)c1 [Example 185, 3-{1-[3-(difluoromethoxy)phenyl]-3-(2-phenylethyl)-1H-indol-5-yl}propanoic acid] has an IC50 of 278 nM.
With O=C(O)CCc1ccc2c(c1)c(CCc1ccccc1)cn2-c1ccc(OC(F)F)cc1 [Example 189, 3-{1-[4-(difluoromethoxy)phenyl]-3-(2-phenylethyl)-1H-indol-5-yl}propanoic acid] the IC50 was 43 nM.
Nc1ccc(-n2cc(CCc3ccccc3)c3cc(CCC(=O)O)ccc32)cc1 [Example 196, 3-[1-(4-aminophenyl)-3-(2-phenylethyl)-1H-indol-5-yl]propanoic acid] showed an IC50 of 66 nM.
In the case of COCC(=O)Nc1ccc(-n2cc(CCc3ccccc3)c3cc(CCC(=O)O)ccc32)cc1 [Example 197, 3-[1-{4-[(methoxyacetyl)amino]phenyl}-3-(2-phenylethyl)-1H-indol-5-yl]propanoic acid], the IC50 is reported as 157 nM.
With O=C(O)CCc1ccc2c(c1)c(CCc1ccccc1)cn2-c1ccc(OCc2ccccc2)nc1 [Example 199, 3-{1-[6-(benzyloxy)pyridin-3-yl]-3-(2-phenylethyl)-1H-indol-5-yl}propanoic acid] the IC50 was 986 nM.
